Measurements: patent US20190119348A1, “PARATHYROID HORMONE RECEPTOR 1 ANTAGONIST AND INVERSE AGONIST POLYPEPTIDES AND METHODS OF THEIR USE” (The General Hospital Corporation, priority 2016, published 2019)
Where a SMILES comes first, the peptide text is derived from it. [ ]: non-standard residue; d: D form. Nle = CCCC[C@H](N)C(=O)O

Target: T1, human PTHR1-H223R (Homo sapiens, UniProt Q03431, H223R)
T1 construct: expressed in transfected cells; host or cells: GHR-10 (HEK-293 stably expressing GloSensor and PTHR1-H223R)
T1 sequence (Q03431 27-593 H223R): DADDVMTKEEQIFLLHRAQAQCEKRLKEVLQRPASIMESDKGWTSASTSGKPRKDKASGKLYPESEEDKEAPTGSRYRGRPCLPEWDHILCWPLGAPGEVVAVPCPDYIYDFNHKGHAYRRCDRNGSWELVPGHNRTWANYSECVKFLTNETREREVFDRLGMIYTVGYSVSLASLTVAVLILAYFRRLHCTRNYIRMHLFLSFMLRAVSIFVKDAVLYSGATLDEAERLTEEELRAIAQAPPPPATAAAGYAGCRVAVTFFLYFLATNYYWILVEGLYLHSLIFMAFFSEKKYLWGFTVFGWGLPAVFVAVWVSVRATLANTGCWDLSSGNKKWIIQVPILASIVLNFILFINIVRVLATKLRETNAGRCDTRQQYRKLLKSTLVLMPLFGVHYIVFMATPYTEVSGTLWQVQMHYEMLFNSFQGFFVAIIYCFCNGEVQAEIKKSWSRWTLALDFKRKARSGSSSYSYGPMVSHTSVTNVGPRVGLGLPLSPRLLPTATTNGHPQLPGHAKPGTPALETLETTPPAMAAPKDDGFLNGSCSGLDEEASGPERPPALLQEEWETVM
Assay: Inverse agonism on basal cAMP signaling in GHR-10 cells
Format: cell-based
Conditions: GHR-10 cells, from AUC, representative experiment; for Reduction of basal cAMP, % vehicle, After ligand washout: 26 minutes after washout of unbound ligand; for Reduction of basal cAMP, % vehicle, Ligand @ −6M: peptide 1×10^−6 M for 24 minutes
Procedure: cAMP signaling was assessed in the HEK293-derived or SaOS2-derived cell lines stably expressing the luciferase-based GloSensor™ cAMP reporter (Hattersley et al., Paper presented at: Novel Signaling Mechanisms and Bone Cell Biology 2014; Binkowski et al., Methods in molecular biology. 756:263-271). HEK-293 cells were further transfected to stably express the hPTHR1, hPTHR1-H223R, or hPTHR1-T410P. The cells were seeded into 96-well white plates and were assayed 24 to 48 hours post-confluency. Assays were performed at room temperature in CO2-independent culture media (Life Technologies, Corp., Carlsbad, Calif.) containing 0.1% BSA (CIDB). The cells were pre-loaded with luciferin (0.5 mM in CIDB) for 15 minutes, then PTH peptides were added at varying concentrations. cAMP-dependent luminescence was measured at two-minute intervals using a PerkinElmer Envision plate reader. The time at which maximum luminescence (cps) observed with agonist alone, typically at 10-20 minutes after agonist addition, was used to obtain data from wells containing antagonist with or without agonist, to thus generate antagonist ligand dose-response curves. The resulting cps values were then plotted against ligand concentration using GraphPad Prism 7.0 software and a four-parameter logistics curve fitting equation, which yielded parameters of inhibitory potency (pIC50).
These experiments were performed in HEK-293 cells stably transfected to express the GloSensor™ cAMP reporter along with a constitutively active mutant human PTHR1. The HEK-293 cells stably expressing GloSensor™ cAMP reporter along with a constitutively active mutant human PTHR1-H223R are GHR-10 cells. The HEK-293 cells stably expressing GloSensor™ cAMP reporter along with a constitutively active mutant human PTHR1-T410P are GTP-4 cells. The HEK-293 cells stably expressing GloSensor™ cAMP reporter along with a WT-PTHR1 are GP-2.3 cells. GP-2.3 cells were used as control. […] Effects on basal cAMP signaling over time were assessed during periods of direct ligand addition (FIGS. 15A-15F). The measurements were performed by recording GloSensor™ luminescence as counts per second (cps) using a PerkinElmer Envision plate reader. The data are illustrated in FIGS. 15A-15F. Data are from triplicate wells (means±SEM) of a single experiment representative of two others.
Persistence of the antagonist/inverse agonist effects (prolonged action) as follows. Effects of eight peptides on basal and PTH(1-34)-stimulated cAMP signaling by PTHR-H223R were assessed in GHR-10 cells (HEK-293-derived cells stably expressing glosensor cAMP reporter and PTHR1-H223R). Time courses of changes in cAMP levels were recorded in three consecutive phases:
1) after initial addition of a candidate antagonist/inverse agonist (1×10^−6 M-1×10^−9 M) to cells pre-loaded for […] with luciferin (left column);
2) after removal of unbound inverse agonist by extensive wash-out with buffer and replenishment with fresh luciferin-containing buffer (middle column); and
Control wells were treated with vehicle. GloSensor™ luminescence, as counts per second (cps), was recorded using a PerkinElmer Envision plate reader. Data are from duplicate wells (means±SEM) of a single experiment representative of two others. The results are illustrated in Table 7 and in FIGS. 16A-16C, 17A-17C, 18A-18C, 19A-19C, 20A-20C, 21A-21C, 22A-22C, and 23A-23C.
GHR10 cells were treated with vehicle or vehicle containing the indicated peptide for 24 minutes and cAMP-dependent luminescence was recorded at two-minute intervals. The cells were then washed to remove unbound ligand and media containing fresh luciferin was added, and cAMP luminescence was recorded for another 26 minutes. Percentage reduction was calculated from the area-under-the-curve (AUC) values derived from the time course plots using the equation: […]

Structure (SMILES)	Reduction of basal cAMP, % vehicle, After ligand washout	Reduction of basal cAMP, % vehicle, Ligand @ −6M
CCCC[C@H](NC(=O)[C@H](CC(C)C)NC(=O)[C@H](CCC(N)=O)NC(=O)[C@@H](N)[C@@H](C)CC)C(=O)N[C@@H](Cc1c[nH]cn1)C(=O)N[C@@H](CCC(N)=O)C(=O)N[C@@H](CC(C)C)C(=O)N[C@H](Cc1c[nH]c2ccccc12)C(=O)N[C@@H](CCCCN)C(=O)N[C@@H](Cc1c[nH]c2ccccc12)C(=O)N[C@H](C(=O)N[C@@H](CCC(N)=O)C(=O)N[C@@H](CC(=O)O)C(=O)N[C@@H](C)C(=O)N[C@@H](CCCNC(=N)N)C(=O)N[C@@H](CCCNC(=N)N)C(=O)N[C@@H](CCCNC(=N)N)C(=O)N[C@@H](C)C(=O)N[C@@H](Cc1c[nH]c2ccccc12)C(=O)N[C@@H](CC(C)C)C(=O)N[C@@H](Cc1c[nH]cn1)C(=O)N[C@@H](CCCCN)C(=O)N[C@@H](CC(C)C)C(=O)N[C@H](C(=O)N[C@@H](C)C(=O)N[C@@H](CCC(=O)O)C(=O)N[C@H](C(=O)N[C@@H](Cc1c[nH]cn1)C(=O)N[C@H](C(=O)N[C@@H](C)C(=O)N[C@@H](CCC(=O)O)C(=O)N[C@H](C(N)=O)[C@@H](C)CC)[C@@H](C)O)[C@@H](C)CC)[C@@H](C)CC)[C@@H](C)CC [compound 1999, Nle8, L11, dW12, W23-LA-PTH(5-36)-1999] (H-IQL[Nle]HQL[dW]KWIQDARRRAWLHKLIAEIHTAEI-NH2; N-terminus assumed)	62 % vehicle	63 % vehicle
CC[C@H](C)[C@H](NC(=O)[C@H](CCC(=O)O)NC(=O)[C@H](C)NC(=O)[C@@H](NC(=O)[C@H](Cc1c[nH]cn1)NC(=O)[C@@H](NC(=O)[C@H](CCC(=O)O)NC(=O)[C@H](C)NC(=O)[C@@H](NC(=O)[C@H](CC(C)C)NC(=O)[C@H](CCCCN)NC(=O)[C@H](Cc1c[nH]cn1)NC(=O)[C@H](CC(C)C)NC(=O)[C@H](Cc1c[nH]c2ccccc12)NC(=O)[C@H](C)NC(=O)[C@H](CCCNC(=N)N)NC(=O)[C@H](CCCNC(=N)N)NC(=O)[C@H](CCCNC(=N)N)NC(=O)[C@H](C)NC(=O)[C@H](CC(=O)O)NC(=O)[C@H](CCC(N)=O)NC(=O)[C@@H](NC(=O)[C@H](Cc1c[nH]c2ccccc12)NC(=O)[C@H](CCCCN)NC(=O)[C@@H](Cc1c[nH]c2ccccc12)NC(=O)[C@H](CC(C)C)NC(=O)[C@H](CCC(N)=O)NC(=O)[C@H](Cc1c[nH]cn1)NC(=O)[C@H](CCSC)NC(=O)[C@@H](N)CC(C)C)[C@@H](C)CC)[C@@H](C)CC)[C@@H](C)CC)[C@@H](C)O)C(N)=O [compound 2001, L11, dW12, W23-LA-PTH(7-36)-2001] (H-LMHQL[dW]KWIQDARRRAWLHKLIAEIHTAEI-NH2; N-terminus assumed)	65 % vehicle	66 % vehicle
CC[C@H](C)[C@H](N)C(=O)N[C@@H](CCC(N)=O)C(=O)N[C@@H](CC(C)C)C(=O)N[C@@H](CCSC)C(=O)N[C@@H](Cc1c[nH]cn1)C(=O)N[C@@H](CCC(N)=O)C(=O)N[C@@H](CC(C)C)C(=O)N[C@H](Cc1c[nH]c2ccccc12)C(=O)N[C@@H](CCCCN)C(=O)N[C@@H](Cc1c[nH]c2ccccc12)C(=O)N[C@H](C(=O)N[C@@H](CCC(N)=O)C(=O)N[C@@H](CC(=O)O)C(=O)N[C@@H](C)C(=O)N[C@@H](CCCNC(=N)N)C(=O)N[C@@H](CCCNC(=N)N)C(=O)N[C@@H](CCCNC(=N)N)C(=O)N[C@@H](C)C(=O)N[C@@H](Cc1c[nH]c2ccccc12)C(=O)N[C@@H](CC(C)C)C(=O)N[C@@H](Cc1c[nH]cn1)C(=O)N[C@@H](CCCCN)C(=O)N[C@@H](CC(C)C)C(=O)N[C@H](C(=O)N[C@@H](C)C(=O)N[C@@H](CCC(=O)O)C(=O)N[C@H](C(=O)N[C@@H](Cc1c[nH]cn1)C(=O)N[C@H](C(=O)N[C@@H](C)C(=O)N[C@@H](CCC(=O)O)C(=O)N[C@H](C(N)=O)[C@@H](C)CC)[C@@H](C)O)[C@@H](C)CC)[C@@H](C)CC)[C@@H](C)CC [compound 2003, L11, dW12, W23-LA-PTH(5-36)-2003] (H-IQLMHQL[dW]KWIQDARRRAWLHKLIAEIHTAEI-NH2; N-terminus assumed)	64 % vehicle	66 % vehicle
